Assay results as given in ChEMBL document CHEMBL1159108, “Synthesis and antimicrobial activity of 2-fluorophenyl-4,6-disubstituted [1,3,5]triazines” (2010).
Converted amounts (≈) assume the structure as drawn.

Assays:
Enterococcus faecium = assay: Antibacterial activity against vancomycin-resistant Enterococcus faecium ATCC 49624; format: functional
[1] = test system: Staphylococcus epidermidis; assay: Antibacterial activity against methicillin-sensitive Staphylococcus epidermidis ATCC 155-U; format: functional
Candida albicans [2] = assay: Antifungal activity against Candida albicans ATCC 10231; format: functional
Bacillus cereus = assay: Antibacterial activity against Bacillus cereus ATCC 13061; format: functional
Candida albicans [3] = assay: Antifungal activity against Candida albicans ATCC 10231
Enterococcus faecalis = assay: Antibacterial activity against Enterococcus faecalis; format: functional
Staphylococcus aureus [4] = assay: Antibacterial activity against methicillin-resistant Staphylococcus aureus; format: functional
Cutibacterium acnes = assay: Antibacterial activity against Propionibacterium acnes; format: functional
Staphylococcus cohnii = assay: Antibacterial activity against coagulase negative-susceptible Staphylococcus cohnii; format: functional
Staphylococcus aureus [5] = assay: Antibacterial activity against vancomycin-resistant Staphylococcus aureus; format: functional
Staphylococcus warneri = assay: Antibacterial activity against coagulase negative-susceptible Staphylococcus warneri; format: functional
Streptococcus pneumoniae [6] = assay: Antibacterial activity against Streptococcus pneumoniae; format: functional
Streptococcus pneumoniae [7] = assay: Antibacterial activity against multidrug-resistant Streptococcus pneumoniae; format: functional

| SMILES | MIC (Enterococcus faecium) [µg/mL] | MIC [1] [µg/mL] | MIC (Candida albicans [2]) [µg/mL] | MIC (Bacillus cereus) [µg/mL] | MIC (Candida albicans [3]) [µg/mL] | MIC (Enterococcus faecalis) [µg/mL] | MIC (Staphylococcus aureus [4]) [µg/mL] | MIC (Cutibacterium acnes) [µg/mL] | MIC (Staphylococcus cohnii) [µg/mL] | MIC (Staphylococcus aureus [5]) [µg/mL] | MIC (Staphylococcus warneri) [µg/mL] | MIC (Streptococcus pneumoniae [6]) [µg/mL] | MIC (Streptococcus pneumoniae [7]) [µg/mL] |
| --- | --- | --- | --- | --- | --- | --- | --- | --- | --- | --- | --- | --- | --- |
| CC1(C)CC(Nc2nc(Nc3cccc(F)c3)nc(-c3cccc(F)c3)n2)CC(C)(C)N1 | 4 (≈ 9.12 µM) | 2 (≈ 4.56 µM) | 32 (≈ 73 µM) | 4 (≈ 9.12 µM) |  |  |  |  |  |  |  |  |  |
| C[C@@H]1[C@H](O)[C@@H](C)/C=C/C=C/C=C/C=C/C=C/C=C/C=C/[C@H](O[C@@H]2O[C@H](C)[C@@H](O)[C@H](N)[C@@H]2O)C[C@@H]2O[C@](O)(C[C@@H](O)C[C@@H](O)[C@H](O)CC[C@@H](O)C[C@@H](O)CC(=O)O[C@H]1C)C[C@H](O)[C@H]2C(=O)O [AMPHOTERICIN B] |  |  | 1 (≈ 1.08 µM) |  |  |  |  |  |  |  |  |  |  |
| NCCCCCNc1nc(Nc2cccc(F)c2)nc(-c2cccc(O)c2)n1 | 8 (≈ 20.9 µM) | 8 (≈ 20.9 µM) | 32 (≈ 83.7 µM) | 8 (≈ 20.9 µM) |  |  |  |  |  |  |  |  |  |
| NCCCCCCNc1nc(Nc2cccc(F)c2)nc(-c2cccc(F)c2)n1 | 4 (≈ 10 µM) | 2 (≈ 5.02 µM) | 16 (≈ 40.2 µM) | 16 (≈ 40.2 µM) | 16 (≈ 40.2 µM) |  |  |  |  |  |  |  |  |
| NCCCCCCCNc1nc(Nc2cccc(F)c2)nc(-c2cccc(F)c2)n1 | 16 (≈ 38.8 µM) | 8 (≈ 19.4 µM) | 64 (≈ 155 µM) | 16 (≈ 38.8 µM) |  |  |  |  |  |  |  |  |  |
| NCCN(CCN)c1nc(NCCc2ccc(O)cc2)nc(-c2ccc(F)cc2)n1 | 16 (≈ 38.9 µM) | 8 (≈ 19.4 µM) | 32 (≈ 77.8 µM) | 16 (≈ 38.9 µM) |  |  |  |  |  |  |  |  |  |
| NCCCCCNc1nc(Nc2ccc(F)cc2)nc(-c2cccc(F)c2)n1 | 8 (≈ 20.8 µM) | 2 (≈ 5.2 µM) | 4 (≈ 10.4 µM) | 4 (≈ 10.4 µM) |  |  |  |  |  |  |  |  |  |
| NCCCCCNc1nc(Nc2cccc(F)c2)nc(-c2ccccc2F)n1 | 8 (≈ 20.8 µM) | 4 (≈ 10.4 µM) | 16 (≈ 41.6 µM) | 64 (≈ 166 µM) |  |  |  |  |  |  |  |  |  |
| NCC1(CNc2nc(Nc3cccc(F)c3)nc(-c3cccc(F)c3)n2)CCCC1 | 32 (≈ 78 µM) | 16 (≈ 39 µM) | 8 (≈ 19.5 µM) | 32 (≈ 78 µM) |  |  |  |  |  |  |  |  |  |
| CN[C@@H]1[C@H](O[C@H]2[C@H](O[C@H]3[C@H](O)[C@@H](O)[C@H](N=C(N)N)[C@@H](O)[C@@H]3N=C(N)N)O[C@@H](C)[C@]2(O)C=O)O[C@@H](CO)[C@H](O)[C@H]1O.CN[C@@H]1[C@H](O[C@H]2[C@H](O[C@H]3[C@H](O)[C@@H](O)[C@H](N=C(N)N)[C@@H](O)[C@@H]3N=C(N)N)O[C@@H](C)[C@]2(O)C=O)O[C@@H](CO)[C@H](O)[C@H]1O.O=S(=O)(O)O.O=S(=O)(O)O.O=S(=O)(O)O [STREPTOMYCIN SULFATE] | > 16 | > 16 |  | 8 |  |  |  |  |  |  |  |  |  |
| NCCCCCNc1nc(Nc2cccc(F)c2)nc(-c2cncc(F)c2)n1 | 32 (≈ 83 µM) | 32 (≈ 83 µM) | > 100 | 32 (≈ 83 µM) | > 100 |  |  |  |  |  |  |  |  |
| NCCCCCNc1nc(Nc2ccc(F)cc2)nc(-c2cccnc2)n1 | > 100 | 16 (≈ 43.5 µM) | > 100 | > 100 | > 100 |  |  |  |  |  |  |  |  |
| NCCCCCNc1nc(Nc2cccc(F)c2)nc(-c2cccnc2)n1 | 16 (≈ 43.5 µM) | 8 (≈ 21.8 µM) | > 100 | > 100 | > 100 |  |  |  |  |  |  |  |  |
| NCC1CCC(CNc2nc(Nc3cccc(F)c3)nc(-c3cccc(F)c3)n2)CC1 (centres undefined) | 8 (≈ 18.8 µM) | 8 (≈ 18.8 µM) | 64 (≈ 151 µM) | 8 (≈ 18.8 µM) |  |  |  |  |  |  |  |  |  |
| CC(C)(CN)CNc1nc(Nc2cccc(F)c2)nc(-c2cccc(F)c2)n1 | 8 (≈ 20.8 µM) | 2 (≈ 5.2 µM) | 4 (≈ 10.4 µM) | 8 (≈ 20.8 µM) |  |  |  |  |  |  |  |  |  |
| NCCCCCNc1nc(NCCc2ccc(O)cc2)nc(Nc2ccc(F)cc2)n1 | 128 (≈ 301 µM) | 64 (≈ 150 µM) | > 100 | 16 (≈ 37.6 µM) | > 100 | 128 (≈ 301 µM) | 128 (≈ 301 µM) | 32 (≈ 75.2 µM) | 32 (≈ 75.2 µM) | 64 (≈ 150 µM) | 64 (≈ 150 µM) | 64 (≈ 150 µM) | 64 (≈ 150 µM) |
| NCCCCCNc1nc(Nc2cccc(C(F)(F)F)c2)nc(-c2cccc(F)c2)n1 | 4 (≈ 9.21 µM) | 8 (≈ 18.4 µM) | 16 (≈ 36.8 µM) | 16 (≈ 36.8 µM) |  |  |  |  |  |  |  |  |  |
| NCCCCCNc1nc(Nc2cccc(F)c2)nc(-c2cccc(F)c2)n1 | 4 (≈ 10.4 µM) | 8 (≈ 20.8 µM) | 8 (≈ 20.8 µM) | 8 (≈ 20.8 µM) | 8 (≈ 20.8 µM) | 8 (≈ 20.8 µM) | 8 (≈ 20.8 µM) | 16 (≈ 41.6 µM) | 2 (≈ 5.2 µM) | 8 (≈ 20.8 µM) | 4 (≈ 10.4 µM) | 8 (≈ 20.8 µM) | 8 (≈ 20.8 µM) |
| NCCCCCNc1nc(Nc2cccc(F)c2)nc(-c2ccc(F)cc2)n1 | 8 (≈ 20.8 µM) | 2 (≈ 5.2 µM) | 4 (≈ 10.4 µM) | 4 (≈ 10.4 µM) |  |  |  |  |  |  |  |  |  |
| NCCCCCNc1nc(NCCc2ccc(O)cc2)nc(-c2ccc(F)cc2)n1 |  |  | > 100 | 4 (≈ 9.74 µM) | > 100 |  |  |  |  |  |  |  |  |
| Fc1cccc(Nc2nc(NC3CCCNC3)nc(-c3cccc(F)c3)n2)c1 (centres undefined) | 4 (≈ 10.5 µM) | 2 (≈ 5.23 µM) | 8 (≈ 20.9 µM) | 8 (≈ 20.9 µM) | 8 (≈ 20.9 µM) |  |  |  |  |  |  |  |  |
| NCc1ccc(CNc2nc(Nc3cccc(F)c3)nc(-c3cccc(F)c3)n2)cc1 | 8 (≈ 19.1 µM) | 4 (≈ 9.56 µM) | 16 (≈ 38.2 µM) | 16 (≈ 38.2 µM) |  |  |  |  |  |  |  |  |  |
| NCCCCCNc1nc(Nc2cccc(F)c2)nc(-c2cc(F)cc(F)c2)n1 | 8 (≈ 19.9 µM) | 4 (≈ 9.94 µM) | 16 (≈ 39.8 µM) | 16 (≈ 39.8 µM) | 16 (≈ 39.8 µM) |  |  |  |  |  |  |  |  |
| O=C(O)c1cn(C2CC2)c2cc(N3CCNCC3)c(F)cc2c1=O [CIPROFLOXACIN] | > 16 | > 16 |  |  |  | > 16 | > 16 | 0.5 (≈ 1.51 µM) | 0.12 (≈ 0.362 µM) | > 16 | > 16 | > 16 | 1 (≈ 3.02 µM) |
| NCCN(CCN)c1nc(NCCc2ccc(O)cc2)nc(-c2cccc(F)c2)n1 | 8 (≈ 19.4 µM) | 4 (≈ 9.72 µM) | > 100 | 8 (≈ 19.4 µM) | > 100 |  |  |  |  |  |  |  |  |
| NCCCCCNc1nc(-c2cccc(F)c2)nc(-c2cccc(F)c2)n1 | 8 (≈ 21.7 µM) | 2 (≈ 5.41 µM) | 4 (≈ 10.8 µM) |  |  |  |  |  |  |  |  |  |  |
| NCCCCCNc1nc(NCCc2ccc(O)cc2)nc(-c2cccc(F)c2)n1 | 16 (≈ 39 µM) | 8 (≈ 19.5 µM) | > 100 | 8 (≈ 19.5 µM) | > 100 |  |  |  |  |  |  |  |  |
